Test results taken from US11497212B2, “Substituted thiophenyl uracils, salts thereof and the use thereof as herbicidal agents” (Syngenta Crop Protection AG, priority 2017, dated 2022).

Columns and labels:
Assay type in all cases: in vivo
Abutilon theophrasti [1] = test: Herbicidal action post-emergence (greenhouse pot trial); conditions: application rate 80 g/ha, scored visually after about 3 weeks vs untreated controls
How it was run: (§1)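 Sowing in sandy loam, then 2–3 weeks of controlled greenhouse growth. Next, one-leaf-stage plants received a foliar spray of the WP- or EC-formulated compound with 0.5% additive (600 L/ha water, application rate of 80 g/ha or below). Finally, after about 3 weeks under optimal conditions, effect was judged by eye against controls.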

Alopecurus myosuroides [2] = test: as above; conditions: application rate 80 g/ha, scored visually after about 3 weeks vs untreated controls
How it was run: as §1

Amaranthus retroflexus [3] = test: as above; conditions: application rate 80 g/ha, scored visually after about 3 weeks vs untreated controls
How it was run: as §1

Echinochloa crus-galli [4] = test: as above; conditions: application rate 80 g/ha, scored visually after about 3 weeks vs untreated controls
How it was run: as §1

Lolium rigidum [5] = test: as above; conditions: application rate 80 g/ha, scored visually after about 3 weeks vs untreated controls
How it was run: as §1

Matricaria inodora [6] = test: as above; conditions: application rate 80 g/ha, scored visually after about 3 weeks vs untreated controls
How it was run: as §1

Pharbitis purpurea [7] = test: as above; conditions: application rate 80 g/ha
How it was run: as §1

Polygonum convolvulus = test: as above; conditions: application rate 80 g/ha, scored visually after about 3 weeks vs untreated controls
How it was run: as §1

Setaria viridis [8] = test: as above; conditions: application rate 80 g/ha, scored visually after about 3 weeks vs untreated controls
How it was run: as §1

Stellaria media [9] = test: as above; conditions: application rate 80 g/ha, scored visually after about 3 weeks vs untreated controls
How it was run: as §1

Veronica persica [10] = test: as above; conditions: application rate 80 g/ha
How it was run: as §1

Viola tricolor [11] = test: as above; conditions: application rate 80 g/ha
How it was run: as §1

Oryza sativa = test: Crop compatibility post-emergence (greenhouse pot trial)
How it was run: (§2)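 Visual % rating about 3 weeks post-treatment against untreated plants (100% dead, 0% unaffected). Post-emergence spray of aqueous WP/EC preparations with 0.5% additive at 600 L/ha water, applied at one-leaf stage to greenhouse pot-grown crops in sandy loam.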

Triticum aestivum = test: as above
How it was run: as §2

Zea mays [12] = test: as above
How it was run: as §2

Abutilon theophrasti [13] = test: Herbicidal action pre-emergence (greenhouse pot trial); conditions: application rate 320 g/ha, scored after about 3 weeks
How it was run: (§3)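 Application rates of 320 g/ha or lower were used, with compounds delivered onto covering soil before weed emergence. After roughly three weeks in the greenhouse, damage was judged by eye as a percentage versus untreated plants.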

Alopecurus myosuroides [14] = test: as above; conditions: application rate 320 g/ha, scored after about 3 weeks
How it was run: as §3

Amaranthus retroflexus [15] = test: as above; conditions: application rate 320 g/ha, scored after about 3 weeks
How it was run: as §3

Avena fatua = test: as above; conditions: application rate 320 g/ha
How it was run: as §3

Cyperus esculentus = test: as above; conditions: application rate 320 g/ha
How it was run: as §3

Echinochloa crus-galli [16] = test: as above; conditions: application rate 320 g/ha, scored after about 3 weeks
How it was run: as §3

Hordeum murinum = test: as above; conditions: application rate 320 g/ha
How it was run: as §3

Lolium rigidum [17] = test: as above; conditions: application rate 320 g/ha
How it was run: as §3

Matricaria inodora [18] = test: as above; conditions: application rate 320 g/ha, scored after about 3 weeks
How it was run: as §3

Pharbitis purpurea [19] = test: as above; conditions: application rate 320 g/ha
How it was run: as §3

Setaria viridis [20] = test: as above; conditions: application rate 320 g/ha, scored after about 3 weeks
How it was run: as §3

Stellaria media [21] = test: as above; conditions: application rate 320 g/ha, scored after about 3 weeks
How it was run: as §3

Veronica persica [22] = test: as above; conditions: application rate 320 g/ha
How it was run: as §3

Viola tricolor [23] = test: as above; conditions: application rate 320 g/ha, scored after about 3 weeks
How it was run: as §3

Zea mays [24] = test: Crop compatibility pre-emergence (greenhouse pot trial); conditions: effect vs untreated controls
How it was run: (§4)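 After soil-surface application of each compound to freshly sown pots (aqueous spray, 600 L/ha, 0.5% additive), plants grew under greenhouse conditions. Around 3 weeks later, injury was estimated visually on a 0–100% scale against controls.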

Glycine max [25] = test: Crop compatibility post-emergence (greenhouse pot trial)
How it was run: as §2

Glycine max [26] = test: Crop compatibility pre-emergence (greenhouse pot trial); conditions: application rate 80 g/ha, effect vs untreated controls
How it was run: as §4

| SMILES | Abutilon theophrasti (Efficacy in %) (Abutilon theophrasti [1]) | Amaranthus retroflexus (Efficacy in %) (Amaranthus retroflexus [3]) | Matricaria inodora (Efficacy in %) (Matricaria inodora [6]) | Pharbitis purpurea (Efficacy in %) (Pharbitis purpurea [7]) | Polygonum convolvulus (Efficacy in %) (Polygonum convolvulus) | Veronica persica (Efficacy in %) (Veronica persica [10]) | Viola tricolor (Efficacy in %) (Viola tricolor [11]) | Abutilon theophrasti (Efficacy in %) (Abutilon theophrasti [13]) | Amaranthus retroflexus (Efficacy in %) (Amaranthus retroflexus [15]) | Avena fatua (Efficacy in %) (Avena fatua) | Cyperus esculentus (Efficacy in %) (Cyperus esculentus) | Echinochloa crus-galli (Efficacy in %) (Echinochloa crus-galli [16]) | Hordeum murinum (Efficacy in %) (Hordeum murinum) | Lolium rigidum (Efficacy in %) (Lolium rigidum [17]) | Matricaria inodora (Efficacy in %) (Matricaria inodora [18]) | Pharbitis purpurea (Efficacy in %) (Pharbitis purpurea [19]) | Setaria viridis (Efficacy in %) (Setaria viridis [20]) | Stellaria media (Efficacy in %) (Stellaria media [21]) | Veronica persica (Efficacy in %) (Veronica persica [22]) | Viola tricolor (Efficacy in %) (Viola tricolor [23]) | other results |
| --- | --- | --- | --- | --- | --- | --- | --- | --- | --- | --- | --- | --- | --- | --- | --- | --- | --- | --- | --- | --- | --- |
| COCCOC(=O)C(C)Sc1cc(-n2c(=O)cc(C(F)(F)F)n(C)c2=O)c(F)cc1Cl (centres unmarked) [I.1-1] | 100% | 100% | 100% | 100% | 100% | 100% | 100% | 100% | 100% | 90% | 100% | 100% | 90% | 80% | 100% | 100% | 100% | 100% | 100% | 100% | Alopecurus myosuroides (Efficacy in %) (Alopecurus myosuroides [2]): 80%; Echinochloa crus-galli (Efficacy in %) (Echinochloa crus-galli [4]): 100%; Lolium rigidum (Efficacy in %) (Lolium rigidum [5]): 90%; Setaria viridis (Efficacy in %) (Setaria viridis [8]): 100%; Stellaria media (Efficacy in %) (Stellaria media [9]): 100%; Oryza sativa (Efficacy in %) (Oryza sativa; application rate 5 g/ha): 20%; Triticum aestivum (Efficacy in %) (Triticum aestivum; application rate 5 g/ha): 20%; Zea mays (Efficacy in %) (Zea mays [12]; application rate 20 g/ha): 20%; Alopecurus myosuroides (Efficacy in %) (Alopecurus myosuroides [14]): 80%; Zea mays (Efficacy in %) (Zea mays [24]; application rate 20 g/ha): 20% |
| CC(Sc1cc(-n2c(=O)cc(C(F)(F)F)n(C)c2=O)c(F)cc1Cl)C(=O)NCC1CS(=O)(=O)CCO1 (centres unmarked) [I.1-333] | 100% | 100% | 100% | 80% | 100% | 80% | 100% | 100% | 100% | 100% | 80% | 100% | 100% | 100% | 100% | 100% | 90% | 100% | 100% | 100% | Glycine max (Efficacy in %) (Glycine max [25]; application rate 20 g/ha): 20%; Oryza sativa (Efficacy in %) (Oryza sativa; application rate 80 g/ha): 0%; Triticum aestivum (Efficacy in %) (Triticum aestivum; application rate 20 g/ha): 10%; Zea mays (Efficacy in %) (Zea mays [12]; application rate 80 g/ha): 0%; Alopecurus myosuroides (Efficacy in %) (Alopecurus myosuroides [14]): 100%; Glycine max (Efficacy in %) (Glycine max [26]): 0%; Zea mays (Efficacy in %) (Zea mays [24]; application rate 80 g/ha): 20% |
| COCCOC(=O)CSc1cc(-n2c(=O)cc(C(F)(F)F)n(C)c2=O)c(F)cc1Cl [I.8-1] | 100% | 100% | 100% | 100% | 100% | 100% | 100% | 100% | 100% | 80% | 90% | 100% | 90% | 90% | 100% | 100% | 100% | 100% | 100% | 100% | Echinochloa crus-galli (Efficacy in %) (Echinochloa crus-galli [4]): 100%; Setaria viridis (Efficacy in %) (Setaria viridis [8]): 100%; Stellaria media (Efficacy in %) (Stellaria media [9]): 100%; Glycine max (Efficacy in %) (Glycine max [25]; application rate 5 g/ha): 20%; Oryza sativa (Efficacy in %) (Oryza sativa; application rate 5 g/ha): 10%; Zea mays (Efficacy in %) (Zea mays [12]; application rate 5 g/ha): 20% |
